In patent publication US12383545B1, “Treatment of migraine” (priority 2018, dated 2025):

Tested on: participants with episodic migraine
Assay: Study A: Migraine-Specific Quality of Life Questionnaire (MSQ v2.1) domain scores
Format: in vivo, human
Design: key to MSQ v2.1 Role Function Restrictive domain score, Week 12, mean (SD) / MSQ v2.1 Role Function Restrictive domain score, change from baseline, mean (SD) / MSQ v2.1 Role Function Restrictive domain score, MMRM LS mean change (SE): 0–100 scale, higher = better quality of life
Details: for MSQ v2.1 Role Function Restrictive domain score, Week 12, mean (SD): mITT; for MSQ v2.1 Role Function Restrictive domain score, MMRM LS mean change (SE) / MSQ v2.1 Role Function Restrictive domain score, change from baseline, mean (SD): week 12, mITT; for MSQ v2.1 EF domain, improvement vs placebo / MSQ v2.1 RFP domain, improvement vs placebo: week 12
Excerpt: The Migraine-Specific Quality of Life Questionnaire Version 2.1 is one of the most frequently utilized disease-specific tools assessing the impact of migraine on HRQL. The MSQ is a validated tool that assess the impact of migraine on function (i.e., daily social and work-related activities) over the past 4 weeks across three dimensions: Role Function-Restrictive (RR, or “RFR”, relating to how migraines limit the patient's daily social and work related activities), Role Function-Preventive (RP, e.g., how migraines prevent the patient's daily social and work related activities), and Emotional Function (EF, e.g., the emotions associated with a patient's migraines). Patients respond to items using a 6-point scale: “none of the time,” “a little bit of the time,” “some of the time”, “a good bit of the time,” “most of the time” and “all of the time,” which are assigned scores of 1 to 6, respectively. Raw dimension scores are computed as a sum of item responses and rescaled from a 0 to 100 scale such that higher scores indicate better quality of life. See Bagley et al., Validating Migraine-Specific Quality of Life Questionnaire v2.1 in Episodic and Chronic Migraine, Headache, 2012 March; 52 (3): 409-21.
The primary efficacy endpoint was change from baseline in mean monthly migraine days across the 12-week treatment period. Secondary efficacy endpoints, tested in hierarchical order, were change from baseline in mean monthly headache days across the 12-week treatment period, change from baseline in mean monthly acute medication use days across the 12 week treatment period, ≥50% reduction in 3-month average of monthly migraine days, change from baseline in MSQ v 2.1 Role Function-Restrictive domain score at week 12, change from baseline in mean monthly Performance of Daily Activities domain score of the AIM-D across the 12-week treatment period, and change from baseline in mean monthly Physical Impairment domain score of the AIM-D across the 12-week treatment period. An exploratory analysis of the time course of efficacy for atogepant by 4-week intervals, based on the least square mean change from baseline for the number of monthly migraine days over the 12-week treatment period was also conducted.
A secondary endpoint measured the change from baseline in MSQ v2.1 Role Function Restrictive Domain Score at Week 12. The Migraine-Specific Quality of Life Questionnaire Version 2.1 is one of the most frequently utilized disease-specific tools assessing the impact of migraine on HRQL. The MSQ measures the impact of migraine on the patient's HRQL over the past 4 weeks across three dimensions: Role Function-Restrictive (RR), Role Function-Preventive (RP), and Emotional Function (EF).

C[C@@H]1[C@H](c2c(F)ccc(F)c2F)C[C@H](NC(=O)c2cnc3c(c2)C[C@@]2(C3)C(=O)Nc3ncccc32)C(=O)N1CC(F)(F)F [atogepant]
MSQ v2.1 RFR domain score, LSMD vs. placebo (95% CI) (10 mg QD (symbol *), week 4, FIG. 11): 8.6 | MSQ v2.1 RFR domain score, LSMD vs. placebo (95% CI) (10 mg QD (symbol *), week 8, FIG. 11): 11.3 | MSQ v2.1 RFR domain score, LSMD vs. placebo (95% CI) (10 mg QD, Week 12): 9.9 | MSQ v2.1 Role Function Restrictive domain score, Week 12, mean (SD) (10 mg QD): 75.6 | MSQ v2.1 RFR domain score, LSMD vs. placebo (95% CI) (10 mg QD, week 12, listed as Atogepant): 9.90 | MSQ v2.1 Role Function Restrictive domain score, MMRM LS mean change (SE) (10 mg QD): 30.35 | MSQ v2.1 Role Function Restrictive domain score, change from baseline, mean (SD) (10 mg QD): 30.8 | MSQ v2.1 EF domain, improvement vs placebo (10 mg): 8.3 | MSQ v2.1 RFP domain, improvement vs placebo (10 mg): 5.8 | MSQ v2.1 RFR domain score, LSMD vs. placebo (95% CI) (30 mg QD (symbol †), week 4, FIG. 11): 11.2 | MSQ v2.1 RFR domain score, LSMD vs. placebo (95% CI) (30 mg QD (symbol †), week 8, FIG. 11): 9.9 | MSQ v2.1 RFR domain score, LSMD vs. placebo (95% CI) (30 mg QD, Week 12): 10.1 | MSQ v2.1 Role Function Restrictive domain score, Week 12, mean (SD) (30 mg QD): 75.4 | MSQ v2.1 RFR domain score, LSMD vs. placebo (95% CI) (30 mg QD, week 12, listed as Atogepant): 10.08 | MSQ v2.1 Role Function Restrictive domain score, MMRM LS mean change (SE) (30 mg QD): 30.53 | MSQ v2.1 Role Function Restrictive domain score, change from baseline, mean (SD) (30 mg QD): 31.1 | MSQ v2.1 EF domain, improvement vs placebo (30 mg): 9.7 | MSQ v2.1 RFP domain, improvement vs placebo (30 mg): 6.9 | MSQ v2.1 RFR domain score, LSMD vs. placebo (95% CI) (60 mg QD (symbol ‡), week 4, FIG. 11): 12.3 | MSQ v2.1 RFR domain score, LSMD vs. placebo (95% CI) (60 mg QD (symbol ‡), week 8, FIG. 11): 10.8 | MSQ v2.1 RFR domain score, LSMD vs. placebo (95% CI) (60 mg QD, Week 12): 10.8 | MSQ v2.1 Role Function Restrictive domain score, Week 12, mean (SD) (60 mg QD): 78.0 | MSQ v2.1 RFR domain score, LSMD vs. placebo (95% CI) (60 mg QD, week 12, listed as Atogepant): 10.80 | MSQ v2.1 Role Function Restrictive domain score, MMRM LS mean change (SE) (60 mg QD): 31.25 | MSQ v2.1 Role Function Restrictive domain score, change from baseline, mean (SD) (60 mg QD): 30.5 | MSQ v2.1 EF domain, improvement vs placebo (60 mg): 10.5 | MSQ v2.1 RFP domain, improvement vs placebo (60 mg): 7.1
